# Measurements reported in US20170348306A1, “METHODS OF TREATING CANCER” (GLAXOSMITHKLINE LLC, priority 2011, published 2017).
# pIC50: −log10 of the molar value.
# Tests used:
# [1] = test system: H3K27me3/2/1, histone H3, EZH2, SUZ12, EED in lymphoma cell lines; assay: Western blot of H3K27 methylation status and PRC2 components following GSK126 treatment; type: cell-based, human
# Protocol: Cell lines were obtained from the American Type Culture Collection or the Deutsche Sammlung von Mikroorganismen und Zellbulturen and maintained in the recommended cell culture media at 37° C. in 5% CO2. Cells were lysed with radioimmunoprecipitation (RIPA) buffer (ThermoScientific) and western blot analysis was conducted as previously described (41). Antibodies were obtained as previously described (41) or from Cell Signaling Technology (SUZ12, 3737), or Santa Cruz Biotechnology (EED, sc-28701).
# Cells (2×10^5/well) were seeded into six-well tissue culture plates in the appropriate cell culture media 24 hours before treatment.
# [2] = test system: DLBCL cell lines; assay: Gene expression profiling (Affymetrix Human Genome U133 Plus 2.0); type: cell-based; details: 72 hours
# Protocol: (§1) Biochemical assays utilized the 5-member PRC2 complex (human Flag-EZH2, EED, SUZ12, AEBP2, RbAp48) containing either WT or mutant EZH2, [^3H-]SAM and the indicated peptide substrate; reactions were incubated for 30 minutes. Global histone modification levels were determined by ELISA or western blot methods using antibodies specific for total histone H3, H3K27me1, H3K27me2, or H3K27me3. Cell proliferation and Caspase-3/7 activity were assessed using CellTiter-Glo and Caspase-Glo 3/7 (Promega), respectively. Gene expression profiling was conducted using Affymetrix Human Genome U133 Plus 2.0 microarrays. Differentially-expressed probe sets were determined by fitting the data to a linear model using the limma statistical package (http://www.bioconductor.org) and carrying out pair-wise contrasts of treated versus control. Significant probe sets were filtered for detection (log2 signal threshold of 8), an average fold-change >2 or <−2, or >1.5 or <−1.5, where indicated, with p-values adjusted for multiple testing correction by FDR (Benjamini Hochberg)<0.1. H3K27me3 ChIP reads were aligned using Bowtie (56). H3K27me3 enrichment peaks were identified using SICER (57) with optimized parameters. A custom PERL script was utilized to quantify the average basal H3K27me3 ChIP-seq tag density across gene sets. All in vivo studies were conducted after review by the Institutional Animal Care and Use Committee at GSK and in accordance with the GSK Policy on the Care, Welfare and Treatment of Laboratory Animals. GSK126 and vehicle were administered to mice intraperitoneally. Two-tailed t-tests were conducted assuming two samples of equal variance.
# Cells (2×10^5/well) were seeded into six-well tissue culture plates in the appropriate cell culture media 24 hours before treatment. […] Cells were collected into Trizol reagent (Invitrogen) and total RNA was isolated via phenol:chloroform extraction and the RNeasy kit (Qiagen) according to the manufacturer's instructions. Total RNA was labeled and hybridized to Affymetrix Human Genome U133 Plus 2.0 oligonucleotide microarrays arrays according to the manufacturer's instructions (Affymetrix, Santa Clara, Calif., USA) at Expression Analysis (Durham, N.C.). […] Principal component and correlation analysis were used to confirm data reproducibility (FIG. 16).
# CEL files, corresponding to individual samples, were processed by the Micro Array Suite 5.0 (MASS) algorithm (http://www.affyrmetrix.com/support/index.affx) where signal values were scaled to a target intensity of 500 and log2 transformed. Differentially expressed probe sets were determined by fitting the data to a linear model and carrying out pair-wise contrasts of treated versus control. […]
# [3] = biological target: T1, EZH2 (Homo sapiens, UniProt Q15910); assay: Mechanism of GSK126 inhibition of EZH2 (IC50 at varied SAM and peptide); type: biochemical; details: SAM 0.1-15 μM; peptide 16-60 μM
# T1 construct: TEV site (FLAG-tev-EZH2) (N); made in house; host or cells: Sf9 insect cells (baculovirus)
# T1 sequence (Q15910 whole entry): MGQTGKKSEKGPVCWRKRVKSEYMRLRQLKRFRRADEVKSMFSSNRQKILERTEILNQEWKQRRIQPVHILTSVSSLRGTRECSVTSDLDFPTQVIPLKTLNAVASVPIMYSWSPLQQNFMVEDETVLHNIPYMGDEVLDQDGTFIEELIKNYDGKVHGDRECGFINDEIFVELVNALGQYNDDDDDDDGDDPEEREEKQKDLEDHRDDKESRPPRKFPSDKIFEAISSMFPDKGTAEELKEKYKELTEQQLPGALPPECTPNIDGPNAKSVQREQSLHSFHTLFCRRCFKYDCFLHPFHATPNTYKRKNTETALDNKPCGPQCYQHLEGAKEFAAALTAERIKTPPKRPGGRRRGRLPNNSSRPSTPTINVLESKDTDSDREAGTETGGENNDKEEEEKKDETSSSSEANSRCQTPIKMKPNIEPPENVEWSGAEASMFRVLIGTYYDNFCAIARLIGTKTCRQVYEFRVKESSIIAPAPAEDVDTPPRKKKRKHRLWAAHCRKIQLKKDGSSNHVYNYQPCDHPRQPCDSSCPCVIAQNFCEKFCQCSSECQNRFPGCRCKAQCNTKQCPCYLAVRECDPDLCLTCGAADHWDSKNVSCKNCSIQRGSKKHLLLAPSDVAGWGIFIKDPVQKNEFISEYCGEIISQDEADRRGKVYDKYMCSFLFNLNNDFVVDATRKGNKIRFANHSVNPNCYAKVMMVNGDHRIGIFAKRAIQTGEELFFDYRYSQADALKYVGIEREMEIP
# T1 sequence (O75530 whole entry partner): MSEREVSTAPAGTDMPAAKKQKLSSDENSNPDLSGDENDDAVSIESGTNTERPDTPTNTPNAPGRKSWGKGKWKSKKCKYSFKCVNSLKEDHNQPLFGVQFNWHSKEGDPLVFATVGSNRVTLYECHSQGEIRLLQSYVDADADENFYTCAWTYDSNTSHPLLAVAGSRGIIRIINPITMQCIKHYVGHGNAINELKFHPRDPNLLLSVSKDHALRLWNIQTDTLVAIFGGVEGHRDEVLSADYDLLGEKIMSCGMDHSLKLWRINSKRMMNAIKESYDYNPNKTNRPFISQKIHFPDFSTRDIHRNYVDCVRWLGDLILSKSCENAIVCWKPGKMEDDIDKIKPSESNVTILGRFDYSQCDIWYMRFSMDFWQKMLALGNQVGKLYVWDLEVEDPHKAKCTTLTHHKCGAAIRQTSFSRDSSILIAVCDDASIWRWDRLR
# T1 sequence (Q15022 whole entry partner): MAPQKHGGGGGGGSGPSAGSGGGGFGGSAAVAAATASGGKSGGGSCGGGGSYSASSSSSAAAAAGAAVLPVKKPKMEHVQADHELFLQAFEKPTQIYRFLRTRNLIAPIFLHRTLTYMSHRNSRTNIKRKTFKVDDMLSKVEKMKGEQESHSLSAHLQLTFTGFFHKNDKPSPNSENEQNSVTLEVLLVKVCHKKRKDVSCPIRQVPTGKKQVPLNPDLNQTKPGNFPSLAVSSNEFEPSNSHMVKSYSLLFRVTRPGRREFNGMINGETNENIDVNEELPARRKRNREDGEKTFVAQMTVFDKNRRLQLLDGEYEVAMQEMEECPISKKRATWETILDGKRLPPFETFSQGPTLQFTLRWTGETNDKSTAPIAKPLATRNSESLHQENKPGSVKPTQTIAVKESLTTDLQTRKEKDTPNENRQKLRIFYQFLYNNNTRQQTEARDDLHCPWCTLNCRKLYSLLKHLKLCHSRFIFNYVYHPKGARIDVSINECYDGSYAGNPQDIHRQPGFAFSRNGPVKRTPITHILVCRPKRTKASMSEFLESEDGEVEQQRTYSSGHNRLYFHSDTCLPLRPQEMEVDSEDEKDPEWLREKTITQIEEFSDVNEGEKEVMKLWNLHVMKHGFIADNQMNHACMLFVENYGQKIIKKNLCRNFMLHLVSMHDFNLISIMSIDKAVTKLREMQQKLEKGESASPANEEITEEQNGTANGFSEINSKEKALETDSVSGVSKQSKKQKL
# T1 sequence (Q09028 whole entry partner): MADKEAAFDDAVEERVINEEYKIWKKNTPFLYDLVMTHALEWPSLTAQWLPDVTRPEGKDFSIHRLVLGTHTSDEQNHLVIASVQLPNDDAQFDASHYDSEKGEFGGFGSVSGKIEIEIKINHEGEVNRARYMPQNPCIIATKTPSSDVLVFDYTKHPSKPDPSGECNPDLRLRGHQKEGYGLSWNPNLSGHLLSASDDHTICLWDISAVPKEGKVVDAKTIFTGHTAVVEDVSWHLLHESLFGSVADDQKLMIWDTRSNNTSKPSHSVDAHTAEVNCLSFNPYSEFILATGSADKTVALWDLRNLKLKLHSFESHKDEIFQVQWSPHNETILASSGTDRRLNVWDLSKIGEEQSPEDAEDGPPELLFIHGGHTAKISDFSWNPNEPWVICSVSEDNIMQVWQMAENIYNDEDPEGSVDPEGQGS
# T1 sequence (Q6ZN18 1-503 partner limits assumed): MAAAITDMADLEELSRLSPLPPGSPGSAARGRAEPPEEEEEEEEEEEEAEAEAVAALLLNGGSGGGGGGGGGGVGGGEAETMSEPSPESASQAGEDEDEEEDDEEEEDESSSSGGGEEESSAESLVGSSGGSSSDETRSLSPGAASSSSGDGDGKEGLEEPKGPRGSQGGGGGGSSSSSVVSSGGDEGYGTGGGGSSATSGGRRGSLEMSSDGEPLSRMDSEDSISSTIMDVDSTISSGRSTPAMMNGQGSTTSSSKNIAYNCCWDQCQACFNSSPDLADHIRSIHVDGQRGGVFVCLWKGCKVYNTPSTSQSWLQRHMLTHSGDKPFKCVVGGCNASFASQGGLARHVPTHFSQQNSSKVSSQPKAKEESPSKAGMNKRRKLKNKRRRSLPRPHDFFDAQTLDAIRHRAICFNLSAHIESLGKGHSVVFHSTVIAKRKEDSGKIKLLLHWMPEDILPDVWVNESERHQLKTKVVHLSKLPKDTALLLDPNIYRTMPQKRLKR
# From the text: The resulting IC50 values were plotted against the [SAM]/Km ratio or the [peptide]/Km ratio respectively.
# [4] = test system: CI-1; assay: Cell proliferation assay (6 days, CellTiter-Glo); type: cell-based; details: Homo sapiens, 144 h, B-NHL, EZH2 D185H (HET), read-out: AVERAGE GROWTH IC50
# From the text: (§2) Thus, Example 22 and Table 6 better reflect the inhibition of HZH2 inhibitors on cell lines, e.g. the lymphoma cell lines. DLBCL cell lines were the most sensitive to EZH2 inhibition (FIG. 11a). […] Evaluation of GSK126 in additional lymphoma cell lines and extensive genomic and epigenomic characterization will be required to fully elucidate the determinants of sensitivity among lymphoma subtypes.
# as §1
# (§3) The optimal cell seeding was determined empirically for all cell lines by examining the growth of a wide range of seeding densities in a 384-well format to identify conditions that permitted proliferation for 6 days. […] Plates were incubated for 6 days at 37° C. in 5% CO2. Cells were then lysed with CellTiter-Glo (Promega) and chemiluminescent signal was detected with a TECAN Safire2 microplate reader. In addition, an untreated plate of cells was harvested at the time of compound addition (T0) to quantify the starting number of cells. CTG values obtained after the 6 day treatment were expressed as a percent of the T0 value and plotted against compound concentration.
# [5] = test system: MINO; assay: Cell proliferation assay (6 days, CellTiter-Glo); type: cell-based; details: Homo sapiens, 144 h, B-NHL, EZH2 D185H (HET), read-out: AVERAGE GROWTH IC50
# From the text: as §2, §1, §3
# [6] = test system: OCI-LY-19; assay: Cell proliferation assay (6 days, CellTiter-Glo); type: cell-based; details: Homo sapiens, OCI-LY19, 144 h, DLBCL, EZH2 WT, read-out: AVERAGE GROWTH IC50
# From the text: as §2, §1, §3
# [7] = Tolerability in xenograft-bearing mice (body weight, behavior); type: in vivo
# Protocol: All studies were conducted after review by the Institutional Animal Care and Use Committee at GSK and in accordance with the GSK Policy on the Care, Welfare and Treatment of Laboratory Animals. […] Pfeiffer or KARPAS-422 cells (1×10^7) in 100% matrigel (BD Biosciences) were implanted subcutaneously in female beige SCID mice. Tumors were measured with calipers, block randomized according to tumor size into treatment groups. […] Mice were weighed and tumors measured with calipers twice weekly. For mouse pharmacokinetic studies, tumor and blood samples were harvested from euthanized mice at the indicated time. […] For pharmacodynamic studies, a portion of each tumor was frozen for H3K27me3/H3 ELISAs or placed in RNAlater (Ambion) for RNA isolation. For peripheral blood analyses, blood was harvested via cardiac puncture from euthanized, immunocompetent CD-1 mice (3 mice/group) on day 18. Blood was immediately placed into a Microtainer EDTA tube (BD) and gently mixed by inverting. A complete blood count analysis was conducted using the Advia 2120 hematology analyzer (Siemens Medical Solutions) using multi-species software as per manufacturer's instructions.
smiles,measurement,setting,value
CC[C@H](C)n1cc(C)c2c(C(=O)NCc3c(C)cc(C)[nH]c3=O)cc(-c3ccc(N4CCNCC4)nc3)cc21 [GSK126],Total histone H3 and PRC2 components,"[1]; 25 nM-2 μM, 72 hrs",not affected
same,H3K27me1 level,[1]; 72 hours,only weakly reduced at the highest inhibitor concentration
same,up-regulated probe sets common to at least 4 of 5 mutant cell lines,"[2]; Pfeiffer, KARPAS-422, WSU-DLCL2, SU-DHL-10, SU-DHL-6, 500 nM",35 probe sets
same,down-regulated probe sets,"[2]; Toledo, 2 μM GSK126",10 probe sets
same,up-regulated probe sets,"[2]; Toledo, 2 μM GSK126",23 probe sets
same,share of up-regulated among gene expression changes,"[2]; five most sensitive EZH2 mutant cell lines, 500 nM",69-95%
same,mechanism of inhibition,[3],competitive with SAM and non-competitive with peptide substrates
same,pIC50,[4],5.37
same,pIC50,[5],5.13
same,pIC50,[6],5.99
same,tolerability,"[7]; doses and schedules examined, mice with xenografts",well tolerated
same,body weight,[7]; mice bearing Pfeiffer or KARPAS-422 xenografts,little to no decrease in body weight
